Test results taken from patent US20250230138A1, “COMPOUNDS HAVING A T-STRUCTURE FORMED BY AT LEAST FOUR CYCLES FOR USE IN THE TREATMENT OF CANCER AND OTHER INDICATIONS” (TheRas, Inc., priority 2022, published 2025).
Like-named read-outs stand apart in the source and are kept apart here.

Assays:
[1] = biological target: KRAS-PI3Kα interaction (KRAS-Q25A binding to avi-tagged full length PI3Kα) (Homo sapiens (Human), UniProt P42336); assay: Disrupting KRAS-PI3Kα interaction by SPR inhibition assay; settings: KRAS-Q25A at 20 μM, 25° C.
Experimental: SPR binding experiments were collected on a Biacore 8K Instrument (Cytiva). Neutravidin (Pierce) was amine coupled to the carboxymethylated dextran surface of a CM5 sensor chip (Cytiva) using standard amine coupling chemistry. The CM5 chip surface was first activated with 0.1 M N-hydroxy succinimide and 0.4 M N-ethyl-N′-(3-dimethyl aminopropyl) carbodiimide at a flow rate of 20 μL/min using 20 mM HEPES pH 7.4, 150 mM NaCl as the running buffer. Next, neutravidin was diluted to 20 μg/mL in 10 mM sodium acetate (pH 4.5) and injected on all flow cells until a density of approximately 10,000 response units (RU) was immobilized. Activated amine groups were quenched with an injection of 1 M ethanolamine (pH 8.0). 300-500 RU of avi-tagged full length PI3Kα was captured on all flow cells in 20 mM HEPES pH 7.4, 150 mM NaCl, 5 mM MgCl2, 1 mM TCEP, 0.05% tween 20, 5% DMSO buffer. KRAS-Q25A at 20 μM was mixed with 8 concentrations of compound (50 nM-100 μM) and injected over the full-length PI3Kα at 30 μL/min and 25° C. Steady-state levels of KRAS binding were recorded and fit with a 4-parameter inhibition model to determine the IC50 values.

[2] = system: pAKT in BT474 cells; assay: Cell-based pAKT HTRF assay in BT474 cells; settings: BT474 cells, 4 hr incubation, Compounds 1000-1279, read-out: pAKT inhibition IC50 in BT474 cells
How it was run: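 BT474 cells in DMEM/10% FBS were treated the day after seeding with a 9-point, 3-fold compound series from 3 μM (0.25% DMSO) for 4 hr. Lysates were mixed with d2 and Eu cryptate anti-pAKT antibodies and incubated 4-24 h at room temperature. HTRF was read with excitation at 320 nm and emission at 615 nm.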

[3] = biological target: Cys242 in human PIK3CA (157-299) (Homo sapiens (Human), UniProt P42336); assay: Covalent modification assay using MALDI-TOF MS; type: biochemical; settings: 4 h reaction time point; 1 μM protein target, 1:5 protein to compound ratio (compounds 853-1279)
How it was run: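 Covalent adduct formation was read by linear-mode MALDI-TOF with sinapinic acid matrix, reported as modified-protein peak height divided by total protein peak heights. Reactions held PIK3CA (157-299) at 1 or 3.33 μM in HEPES/NaCl/MgCl2 buffer, pH 7.3, sampled after 15 min to 4 h at room temperature.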

Sequence of Cys242 in human PIK3CA (157-299) (P42336 157-299): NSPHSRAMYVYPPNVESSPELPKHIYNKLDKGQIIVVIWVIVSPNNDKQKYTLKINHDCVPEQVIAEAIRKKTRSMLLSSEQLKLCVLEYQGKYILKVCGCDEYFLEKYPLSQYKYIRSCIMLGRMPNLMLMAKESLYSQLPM
Sequence of KRAS-PI3Kα interaction (KRAS-Q25A binding to avi-tagged full length PI3Kα) (P42336 whole entry, looked up, stated change not applied): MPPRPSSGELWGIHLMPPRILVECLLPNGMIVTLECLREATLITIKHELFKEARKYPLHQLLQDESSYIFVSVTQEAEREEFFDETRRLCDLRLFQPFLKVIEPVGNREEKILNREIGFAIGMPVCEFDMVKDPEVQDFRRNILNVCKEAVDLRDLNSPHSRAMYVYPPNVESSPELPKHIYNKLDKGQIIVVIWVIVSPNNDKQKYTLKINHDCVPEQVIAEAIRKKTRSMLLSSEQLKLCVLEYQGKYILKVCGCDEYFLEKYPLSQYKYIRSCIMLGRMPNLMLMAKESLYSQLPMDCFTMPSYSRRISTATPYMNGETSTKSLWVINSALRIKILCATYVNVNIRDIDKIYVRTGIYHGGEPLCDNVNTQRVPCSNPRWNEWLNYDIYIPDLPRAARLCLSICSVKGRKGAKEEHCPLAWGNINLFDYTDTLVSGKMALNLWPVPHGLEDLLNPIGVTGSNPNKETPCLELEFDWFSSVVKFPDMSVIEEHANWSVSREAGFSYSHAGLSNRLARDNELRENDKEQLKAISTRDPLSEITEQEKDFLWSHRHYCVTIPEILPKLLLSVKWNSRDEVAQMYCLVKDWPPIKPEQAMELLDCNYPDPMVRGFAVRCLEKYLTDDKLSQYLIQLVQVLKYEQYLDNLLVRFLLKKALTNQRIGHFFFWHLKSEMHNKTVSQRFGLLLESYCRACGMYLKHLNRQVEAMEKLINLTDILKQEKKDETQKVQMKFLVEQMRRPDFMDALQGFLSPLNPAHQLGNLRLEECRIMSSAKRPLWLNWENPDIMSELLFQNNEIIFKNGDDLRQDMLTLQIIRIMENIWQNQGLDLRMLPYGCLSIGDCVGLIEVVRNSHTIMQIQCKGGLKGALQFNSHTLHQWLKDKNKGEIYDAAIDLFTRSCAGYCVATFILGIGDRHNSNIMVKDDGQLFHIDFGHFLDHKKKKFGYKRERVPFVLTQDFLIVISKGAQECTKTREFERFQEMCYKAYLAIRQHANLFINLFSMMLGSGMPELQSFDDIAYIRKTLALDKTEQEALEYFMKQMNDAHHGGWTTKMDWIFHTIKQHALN
Sequence of KRAS-PI3Kα interaction (KRAS-Q25A binding to avi-tagged full length PI3Kα) (P27986 whole entry partner, looked up): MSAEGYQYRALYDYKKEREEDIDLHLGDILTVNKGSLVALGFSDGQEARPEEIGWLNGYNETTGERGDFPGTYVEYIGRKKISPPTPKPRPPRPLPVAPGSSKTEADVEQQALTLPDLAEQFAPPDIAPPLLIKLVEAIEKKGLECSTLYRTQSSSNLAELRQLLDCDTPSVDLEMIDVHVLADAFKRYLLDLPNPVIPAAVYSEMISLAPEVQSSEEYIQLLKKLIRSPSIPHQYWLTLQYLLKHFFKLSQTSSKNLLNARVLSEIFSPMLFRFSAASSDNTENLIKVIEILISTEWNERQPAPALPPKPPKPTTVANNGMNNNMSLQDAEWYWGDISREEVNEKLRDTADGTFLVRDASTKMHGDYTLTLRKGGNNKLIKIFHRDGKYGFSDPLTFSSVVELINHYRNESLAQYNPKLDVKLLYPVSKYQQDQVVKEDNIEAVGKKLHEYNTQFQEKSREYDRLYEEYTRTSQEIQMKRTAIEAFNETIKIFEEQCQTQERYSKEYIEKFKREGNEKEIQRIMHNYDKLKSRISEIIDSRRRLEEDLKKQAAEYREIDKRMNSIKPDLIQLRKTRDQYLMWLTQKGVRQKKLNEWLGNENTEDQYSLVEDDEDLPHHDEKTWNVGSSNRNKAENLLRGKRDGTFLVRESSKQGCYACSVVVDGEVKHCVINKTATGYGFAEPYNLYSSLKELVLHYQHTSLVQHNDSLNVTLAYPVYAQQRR

IC50 [1] | IC50 [2] | IC50 ([2]; Homo sapiens, BT-474) | Compound | % of modification [3]
– | > 1000 nM | – | C=CC(=O)N1CCc2ccc(-c3nc(-c4ccc5c(c4)CCN(CC(F)F)CC5)c4ccsc4c3-c3c(F)cc(F)cc3OCCOC)cc2C1 [Compound 1271] | D (percent of modification <25%)
– | > 1000 nM | – | C=CC(=O)N1CCc2ccc(-c3nc(-c4ccc5c(c4)CN(C)CC5(F)F)c4ccsc4c3-c3c(F)cc(F)cc3OCCOC)cc2C1 [Compound 1272] | D (percent of modification <25%)
– | > 1000 nM | – | C=CC(=O)N1CCc2ccc(-c3nc(-c4ccc5c(c4)CN(CCO)CC5(F)F)c4ccsc4c3-c3c(F)cc(F)cc3OCCOC)cc2C1 [Compound 1273] | D (percent of modification <25%)
– | < 100 nM | – | C=CC(=O)N1CCc2ncc(-c3nc(-c4ccc5c(c4)CN(C)CC5(F)F)c4ccsc4c3-c3c(F)cc(F)cc3OCCOC)cc2C1 [Compound 1274] | A (percent of modification of PIK3CA protein ≥75%)
– | < 100 nM | – | C=CC(=O)N1CCn2nc(-c3nc(-c4ccc5c(c4)CN(C)CC5(F)F)c4ccsc4c3-c3c(F)cc(F)cc3OC)cc2C1C (stereo not drawn) [Compound 1275] | A (percent of modification of PIK3CA protein ≥75%)
– | 100 to 1000 nM | – | C=CC(=O)N1CCc2nc(-c3nc(-c4ccc5c(c4)CN(C)CC5(F)F)c4ccsc4c3-c3c(F)cc(F)cc3OCCOC)sc2C1 [Compound 1276] | A (percent of modification of PIK3CA protein ≥75%)
– | > 1000 nM | – | C=CC(=O)N1CCc2ccc(-c3nc(-c4ccc5c(c4)CN(CCOC)CC5(F)F)c4ccsc4c3-c3c(F)cc(F)cc3OCCOC)cc2C1 [Compound 1277] | D (percent of modification <25%)
– | < 100 nM | – | C=CC(=O)N1CCc2ncc(-c3nc(-c4ccc5c(c4)CN(CCOC)CC5(F)F)c4ccsc4c3-c3c(F)cc(F)cc3OCCOC)cc2C1 [Compound 1278] | A (percent of modification of PIK3CA protein ≥75%)
– | < 100 nM | – | C=CC(=O)N1CCc2ncc(-c3nc(-c4cnc5c(c4)CN(C)CC5(F)F)c4ccsc4c3-c3c(F)cc(F)cc3OCCOC)cc2C1 [Compound 1279] | A (percent of modification of PIK3CA protein ≥75%)
> 25000 nM | – | – | COCCOc1ccccc1-c1c(-c2cccc(C#N)c2)nc(-c2ccc3c(c2)CCNC3)c2c1CCC2 [compound 2] | –
> 25000 nM | – | – | COCCOc1ccccc1-c1c(-c2ccccc2)nc(-c2ccc3c(c2)CCNC3)c2c1CCC2 [compound 3] | –
> 25000 nM | – | – | COCCOc1ccccc1-c1c(-c2ccc(=O)n(C)c2)nc(-c2ccc3c(c2)CCNC3)c2c1CCC2 [compound 5] | –
> 25000 nM | – | – | COCCOc1cc(F)ccc1-c1c(-c2nc3ccc(C(C)C)cc3[nH]2)nc(-c2ccc3c(c2)CCNC3)c2ccsc12 [compound 20] | –
5000 to 25000 nM | – | – | COCCOc1cc(F)ccc1-c1c(-c2cnn(CCNC(=O)C(C)C)c2)nc(-c2ccc3c(c2)CCNC3)c2ccsc12 [compound 21] | –
< 5000 nM | – | – | COCCOc1cc(F)ccc1-c1c(-c2cnn(CC(=O)NC(C)(C)C)c2)nc(-c2ccc3c(c2)CCNC3)c2ccsc12 [compound 24] | –
5000 to 25000 nM | – | – | COCCOc1cc(F)ccc1-c1c(-c2cnn(CC(=O)N3CCCC3)c2)nc(-c2ccc3c(c2)CCNC3)c2ccsc12 [compound 25] | –
< 5000 nM | – | – | COCCOc1cc(F)ccc1-c1c(-c2ccc(=O)n(C(C)C)c2)nc(-c2ccc3c(c2)CCNC3)c2ccsc12 [compound 26] | –
< 5000 nM | – | – | COCCOc1cc(F)ccc1-c1c(-c2cccc(CNC(=O)C3CCCC3)c2)nc(-c2ccc3c(c2)CCNC3)c2ccsc12 [compound 27] | –
5000 to 25000 nM | – | – | COCCOc1cc(F)ccc1-c1c(-c2c[nH]cn2)nc(-c2ccc3c(c2)CCNC3)c2ccsc12 [compound 34] | –
5000 to 25000 nM | – | – | COCCOc1cc(F)ccc1-c1c(-c2cnn(CCC(=O)NC(C)(C)C)c2)nc(-c2ccc3c(c2)CCNC3=O)c2ccsc12 [compound 37] | –
5000 to 25000 nM | – | – | COCCOc1cc(F)ccc1-c1c(-c2nc(CO)cs2)nc(-c2ccc3c(c2)CCNC3)c2ccsc12 [compound 39] | –

More lines, now with the values behind:

Compound | IC50 [1] | IC50 [2] | IC50 ([2]; Homo sapiens, BT-474) | % of modification [3]
COCCOc1ccccc1-c1c(-c2ccccc2)nc(-c2ccc3c(c2)CCNC3)c2ccsc12 [Compound 4, 7-[2-(2-methoxyethoxy)phenyl]-6-phenyl-4-(1,2,3,4-tetrahydroisoquinolin-6-yl)thieno[3,2-c]pyridine] | 5000 to 25000 nM | – | – | –
COCCOc1cc(F)cc(F)c1-c1c(-c2cc3n(n2)CCN(C#N)C3C)nc(-c2ccc3c(cnn3C)c2)c2ccsc12 (stereo not drawn) [Compound 1233] | – | 100 to 1000 nM | – | D (percent of modification <25%)
C=CC(=O)N1CCn2nc(-c3nc(-c4ccc5c(cnn5C)c4)c4ccsc4c3-c3c(F)cc(F)cc3OCCOC(F)F)cc2C1C (stereo not drawn) [Compound 1234] | – | < 100 nM | – | A (percent of modification of PIK3CA protein ≥75%)
C=CC(=O)N1CCn2nc(-c3nc(-c4ccc(C5CCCN5C)cc4)c4ccsc4c3-c3c(F)cc(F)cc3OCCOC)cc2C1C (stereo not drawn) [Compound 1237] | – | < 100 nM | – | A (percent of modification of PIK3CA protein ≥75%)
CC=C(C#N)C(=O)N1CCn2nc(-c3nc(-c4ccc5c(cnn5C)c4)c4ccsc4c3-c3c(F)cc(F)cc3OCCOC)cc2C1C (stereo not drawn) [Compound 1239] | – | > 1000 nM | – | C (25%≤percent of modification <50%)
C=CC(=O)N1CCn2nc(-c3nc(-c4ccc5c(cnn5C)c4)c4ccsc4c3-c3c(F)cc(F)cc3OC3CC(F)(F)C3)cc2C1C (stereo not drawn) [Compound 1240] | – | < 100 nM | – | A (percent of modification of PIK3CA protein ≥75%)
C=CC(=O)N1CCn2nc(-c3nc(-c4cnc5c(c4)CN(CCOC)CC5(F)F)c4ccsc4c3-c3c(F)cc(F)cc3OCCOC)cc2C1C (stereo not drawn) [Compound 1242] | – | < 100 nM | – | A (percent of modification of PIK3CA protein ≥75%)
C=CC(=O)N1CCn2nc(-c3nc(-c4cnc5c(c4)CN(C)CC5)c4c(c3-c3c(F)cc(F)cc3OCCOC)CCC4)cc2C1C (stereo not drawn) [Compound 1243] | – | < 100 nM | – | A (percent of modification of PIK3CA protein ≥75%)
C=CC(=O)N1CCn2nc(-c3nc(-c4ccc5c(c4)CN(C)CC5)c4c(c3-c3c(F)cc(F)cc3OCCOC)CCC4)cc2C1C (stereo not drawn) [Compound 1244] | – | < 100 nM | – | A (percent of modification of PIK3CA protein ≥75%)
C=CC(=O)N1CCn2nc(-c3nc(-c4cncc(CCN(C)C)c4)c4ccsc4c3-c3c(F)cc(F)cc3OCCOC)cc2C1C (stereo not drawn) [Compound 1245] | – | < 100 nM | – | A (percent of modification of PIK3CA protein ≥75%)
C=CC(=O)N1Cc2cc(-c3nc(C45CC(CNC(C)=O)(C4)C5)c4ccsc4c3-c3c(F)cc(F)cc3OCCOC)nn2CC1C (stereo not drawn) [Compound 1246] | – | 100 to 1000 nM | – | B (50%<percent of modification <75%)
C=CC(=O)N1CCn2nc(-c3nc(-c4ccc5c(c4)CN(CC(F)F)CC5)c4ccsc4c3-c3c(F)cc(F)cc3OCCOC)cc2C1C (stereo not drawn) [Compound 1248] | – | 100 to 1000 nM | – | A (percent of modification of PIK3CA protein ≥75%)
C=CC(=O)N1CCn2nc(-c3nc(-c4ccc5c(c4)CN(CC(F)F)CC5)c4ccsc4c3-c3c(F)cc(F)cc3OCCO)cc2C1C (stereo not drawn) [Compound 1249] | – | < 100 nM | – | A (percent of modification of PIK3CA protein ≥75%)
C=CC(=O)N1CCn2nc(-c3nc(-c4ccc5c(c4)CN(CC(F)(F)F)CC5)c4ccsc4c3-c3c(F)cc(F)cc3OCCO)cc2C1C (stereo not drawn) [Compound 1250] | – | < 100 nM | – | A (percent of modification of PIK3CA protein ≥75%)
C=CC(=O)N1CCn2nc(-c3nc(-c4ccc5c(c4)CN(CC(F)(F)F)CC5)c4ccsc4c3-c3c(F)cc(F)cc3OCCOC)cc2C1C (stereo not drawn) [Compound 1252] | – | < 100 nM | – | A (percent of modification of PIK3CA protein ≥75%)
C=CC(=O)N1CCc2ncc(-c3nc(-c4ccc5c(cnn5C)c4)c4sccc4c3-c3c(F)cc(F)cc3OCCOC)cc2C1 [Compound 1261, 1-[3-[4-[2,4-difluoro-6-(2-methoxyethoxy)phenyl]-7-(1-methylindazol-5-yl)thieno[2,3-c]pyridin-5-yl]-7,8-dihydro-5H-1,6-naphthyridin-6-yl]prop-2-en-1-one] | – | – | < 100 nM | A (percent of modification of PIK3CA protein ≥75%)
C=CC(=O)N1CCc2nc(-c3nc(-c4ccc5c(c4)CCN(CC(F)F)CC5)c4ccsc4c3-c3c(F)cc(F)cc3OCCOC)sc2C1 [Compound 1270] | – | 100 to 1000 nM | – | A (percent of modification of PIK3CA protein ≥75%)
